Consider 26 molecules from ChEMBL document CHEMBL3877268, “Development of resveratrol-curcumin hybrids as potential therapeutic agents for inflammatory lung diseases” (Eur J Med Chem, 2017).

Calls of active or inactive are those of the source. The rule behind the calls is not given here.

Series [1] is described as follows: Cytotoxicity against human HL-7702 cells assessed as viable cells at 10 uM measured after 24 hrs by MTT assay. The format is toxicity, cell-based. The settings on record: l02, 24 h. For orientation: Tetrazolium assays rely on reduction of a dye to a coloured formazan, in cell work by metabolically active cells.
In series [2] the test system is RAW264.7. Briefly: Anti-inflammatory activity in mouse RAW264.7 cells assessed as inhibition of LPS-induced TNF-alpha expression at […] pretreated for 30 mins followed by LPS challenge measured after 24 hrs by ELISA method. The format is functional, cell-based.
The subject of series [3] is Mus musculus. Briefly: Anti-inflammatory activity in LPS-induced C57BL/6 mouse acute lung injury model assessed as reduction in lung wet/dry ratio at 5 mg/kg, ig pretreated for 7 days followed LPS challenge measured after 6 hrs. The series is classed as functional, organism-based.
In series [4] the test system is Mus musculus. Briefly: Anti-inflammatory activity in LPS-induced C57BL/6 mouse acute lung injury model assessed as reduction in number of neutrophils in bronchoalveolar lavage fluid at 5 mg/kg, ig pretreated for 7 days followed LPS challenge measured after 6 hrs by Wright-Giemsa staining based assay. The format is functional, organism-based.
Series [5] has as its system Mus musculus. Briefly: Anti-inflammatory activity in LPS-induced C57BL/6 mouse acute lung injury model assessed as reduction in TNF-alpha level in bronchoalveolar lavage fluid at 5 mg/kg, ig pretreated for 7 days followed LPS challenge measured after 6 hrs by ELISA method. The format is functional, organism-based. Background: In an ELISA, binding on a coated surface is turned into a signal by an enzyme label.

Series [6] deals with Peritoneal macrophage. As to the kind of experiment: Anti-inflammatory activity in mouse peritoneal macrophage assessed as inhibition of LPS-induced IL-6 expression at 10 uM pretreated for 30 mins followed by LPS challenge measured after 6 hrs by q-PCR analysis. The format is functional.
The subject of series [7] is RAW264.7. Briefly: Anti-inflammatory activity in mouse RAW264.7 cells assessed as inhibition of LPS-induced IL-6 expression at […] pretreated for 30 mins followed by LPS challenge measured after 24 hrs by ELISA method. The format is functional, cell-based.
Series [8] deals with Peritoneal macrophage. Briefly: Anti-inflammatory activity in mouse peritoneal macrophage assessed as inhibition of LPS-induced TNF-alpha mRNA expression at 10 uM pretreated for 30 mins followed by LPS challenge measured after 6 hrs by q-PCR analysis. The format is functional.
Series [9] has as its system Mus musculus. Briefly: Anti-inflammatory activity in LPS-induced C57BL/6 mouse acute lung injury model assessed as reduction in TNF-alpha level in serum at 5 mg/kg, ig pretreated for 7 days followed LPS challenge measured after 6 hrs by ELISA method. The series is classed as functional, organism-based.
The test system of series [10] is Peritoneal macrophage. As to the kind of experiment: Anti-inflammatory activity in mouse peritoneal macrophage assessed as inhibition of LPS-induced IL-12 mRNA expression at 10 uM pretreated for 30 mins followed by LPS challenge measured after 6 hrs by q-PCR analysis. The series is classed as functional.
Series [11] relates to Mus musculus. As to the kind of experiment: Anti-inflammatory activity in LPS-induced C57BL/6 mouse acute lung injury model assessed as reduction in IL-6 level in bronchoalveolar lavage fluid at 5 mg/kg, ig pretreated for 7 days followed LPS challenge measured after 6 hrs by ELISA method. The format is functional, organism-based.
Series [12] relates to Peritoneal macrophage. As to the kind of experiment: Anti-inflammatory activity in mouse peritoneal macrophage assessed as inhibition of LPS-induced IL-33 mRNA expression at 10 uM pretreated for 30 mins followed by LPS challenge measured after 6 hrs by q-PCR analysis. The series is classed as functional.
In series [13] the test system is Mus musculus. As to the kind of experiment: Anti-inflammatory activity in LPS-induced C57BL/6 mouse acute lung injury model assessed as reduction in airspace inflammation in lung tissue at 5 mg/kg, ig pretreated for 7 days followed LPS challenge measured after 6 hrs by hematoxylin and eosin staining based light microscopy. The format is functional, organism-based.

Series [14] deals with Mus musculus. Briefly: Anti-inflammatory activity in LPS-induced C57BL/6 mouse acute lung injury model assessed as reduction in CD68-positive macrophage level in lung tissue at 5 mg/kg, ig pretreated for 7 days followed LPS challenge measured after 6 hrs by […] light microscopy. The format is functional, organism-based.
Series [15] is described as follows: Chemical stability of the compound in phosphate buffer at pH 7.4 at 20 uM measured every 5 mins for 25 mins by UV-visible absorption spectra analysis. The series is classed as physicochemical. The conditions noted are these: pH 7.4, 25 min.
In series [16] the test system is Mus musculus. As to the kind of experiment: Anti-inflammatory activity in LPS-induced C57BL/6 mouse acute lung injury model assessed as reduction in IL-6 level in serum at 5 mg/kg, ig pretreated for 7 days followed LPS challenge measured after 6 hrs by ELISA method. The series is classed as functional, organism-based.
Series [17] deals with Mus musculus. Briefly: Anti-inflammatory activity in LPS-induced C57BL/6 mouse acute lung injury model assessed as reduction in total number of cells in bronchoalveolar lavage fluid at 5 mg/kg, ig pretreated for 7 days followed LPS challenge measured after 6 hrs by hemocytometer. The format is functional, organism-based.
Series [18] concerns Mus musculus. As to the kind of experiment: Anti-inflammatory activity in LPS-induced C57BL/6 mouse acute lung injury model assessed as reduction in total protein concentration at 5 mg/kg, ig pretreated for 7 days followed LPS challenge measured after 6 hrs by BCA protein assay. The series is classed as functional, organism-based.
The test system of series [19] is RAW264.7. As to the kind of experiment: Anti-inflammatory activity in mouse RAW264.7 cells assessed as inhibition of LPS-induced IL-6 expression pretreated for 30 mins followed by LPS challenge measured after 24 hrs by ELISA method. The format is functional, cell-based.

The term IC50 denotes the concentration at which inhibition is half-maximal.

In the case of `COc1ccc(/C=C/c2cc(OC)cc(OC)c2/C=C/C(=O)/C=C/c2ccc(C(F)(F)F)cc2)cc1`, the Activity result in series [1] is listed as “Non-Toxic”.
Regarding `COc1ccc(/C=C/c2cc(OC)cc(OC)c2/C=C/C(=O)/C=C/c2cccc(OC)c2OC)cc1`, the inhibition entry in the series with RAW264.7 [2], with Peritoneal macrophage [6], in the series on RAW264.7 [7], with Peritoneal macrophage [8], with Peritoneal macrophage [10] and in the series on Peritoneal macrophage [12] was “Active” each time. For the same molecule, the result in the series with Mus musculus [3], in the series on Mus musculus [4], in the series on Mus musculus [5], with Mus musculus [9], in the series on Mus musculus [11] and in the series with Mus musculus [13] was Active. In addition, the result in the series on Mus musculus [14], with Mus musculus [16], with Mus musculus [17] and with Mus musculus [18] was Active. For the same molecule, the Stability entry in series [15] is on record as “Stable”. In addition, the Activity entry in [1] is “Non-Toxic”. For the same molecule, the half-inhibitory concentration (IC50) in the series on RAW264.7 [19] amounted to 2.48 µM. In addition, the inhibition entry in the series on RAW264.7 [19] is “Dose-dependent effect”.
As to `COc1ccc(/C=C/c2cc(OC)cc(OC)c2/C=C/C(=O)/C=C/c2ccc(N3CCN(C)CC3)cc2)cc1`, the Activity result in [1] is “Non-Toxic”.
For `COc1ccc(/C=C/c2cc(OC)cc(OC)c2/C=C/C(=O)/C=C/c2ccc(O)c(OC)c2)cc1`, the Activity result in [1] is given as “Non-Toxic”.
Take `COc1ccc(/C=C/c2cc(OC)cc(OC)c2/C=C/C(=O)/C=C/c2ccc3c(c2OC)OCO3)cc1`: the Activity entry in series [1] is recorded as “Non-Toxic”.
In the case of `COc1ccc(/C=C/c2cc(OC)cc(OC)c2/C=C/C(=O)/C=C/c2ccc(OC)c(Br)c2)cc1`, the inhibition entry in the series on RAW264.7 [7] is “Active”. Besides, the Activity entry in [1] was “Non-Toxic”.
In the case of `COc1ccc(/C=C/c2cc(OC)cc(OC)c2/C=C/C(=O)/C=C/c2ccccc2Cl)cc1`, the Activity result in series [1] is recorded as “Non-Toxic”.
Consider `Oc1ccc(/C=C/c2cc(O)cc(O)c2)cc1` [RESVERATROL], for which, in series [15], the Stability entry is listed as “Unstable”.
For `COc1ccc(/C=C/c2cc(OC)cc(OC)c2/C=C/C(=O)/C=C/c2ccc(C)cc2C)cc1`, the Activity result in [1] was “Non-Toxic”.
Consider `CCN(CC)c1ccc(/C=C/C(=O)/C=C/c2c(/C=C/c3ccc(OC)cc3)cc(OC)cc2OC)cc1`, for which the inhibition entry with RAW264.7 [7] is “Active”. The Activity entry in series [1] is listed as “Non-Toxic”.
For the molecule `CCOc1ccc(/C=C/C(=O)/C=C/c2c(/C=C/c3ccc(OC)cc3)cc(OC)cc2OC)cc1`, in series [1], the Activity result is reported as “Non-Toxic”.
Regarding `COc1ccc(/C=C/c2cc(OC)cc(OC)c2/C=C/C(=O)/C=C/c2cccc(C(F)(F)F)c2)cc1`, in the series with RAW264.7 [7], the inhibition result is “Active”. Moreover, in [1], the Activity entry is given as “Non-Toxic”.
For the molecule `C=CCOc1ccc(/C=C/C(=O)/C=C/c2c(/C=C/c3ccc(OC)cc3)cc(OC)cc2OC)cc1`, the Activity result in [1] is “Non-Toxic”.
For the molecule `COc1ccc(/C=C/c2cc(OC)cc(OC)c2/C=C/C(=O)/C=C/c2ccc(C)s2)cc1`, in the series with RAW264.7 [2], the inhibition entry was “Active”. Further, in the series on RAW264.7 [7], the inhibition entry is “Active”. The Stability entry in [15] is given as “Unstable”. Also, in series [1], the Activity result was “Non-Toxic”. In the series with RAW264.7 [19], the IC50 is 4.33 µM and the inhibition result is “Dose-dependent effect”.
For the molecule `COc1ccc(/C=C/c2cc(OC)cc(OC)c2/C=C/C(=O)/C=C/c2ccc(C(C)(C)C)cc2)cc1`, in series [1], the Activity entry is “Non-Toxic”.
In the case of `COc1ccc(/C=C/c2cc(OC)cc(OC)c2/C=C/C(=O)/C=C/c2ccc(O)c(Br)c2)cc1`, the Activity result in [1] was “Non-Toxic”.
In the case of `COc1ccc(/C=C/c2cc(OC)cc(OC)c2/C=C/C(=O)/C=C/c2ccc(OCCCN(C)C)cc2)cc1`, in the series on RAW264.7 [2], the inhibition result was “Active”. For the same molecule, the inhibition result with RAW264.7 [7] is “Active”. In [15], the Stability entry was “Stable”. Also, the Activity entry in series [1] was “Non-Toxic”. In the series with RAW264.7 [19], the 50% inhibitory concentration (IC50) stood at 2.15 µM and the inhibition result is “Dose-dependent effect”.
As for `COc1ccc(/C=C/c2cc(OC)cc(OC)c2/C=C/C(=O)/C=C/c2ccc(OC)cc2OC)cc1`, the inhibition entry in the series with RAW264.7 [2] and in the series with RAW264.7 [7] was “Active” each time. In addition, the Stability result in series [15] is “Stable”. For the same molecule, the Activity entry in series [1] is “Non-Toxic”. Moreover, in the series on RAW264.7 [19], the IC50 stood at 3.03 µM. The inhibition result with RAW264.7 [19] was “Dose-dependent effect”.
As for `COc1ccc(/C=C/c2cc(OC)cc(OC)c2/C=C/C(=O)/C=C/c2ccccc2)cc1`, in the series on RAW264.7 [2], the inhibition result was “Active”. Besides, in the series with RAW264.7 [7], the inhibition result was “Active”. Further, the Stability entry in [15] is given as “Unstable”. The Activity entry in series [1] is “Non-Toxic”. In the series on RAW264.7 [19], the IC50 stood at 3.9 µM and the inhibition entry is “Dose-dependent effect”.
Take `COc1ccc(/C=C/c2cc(OC)cc(OC)c2/C=C/C(=O)/C=C/c2cc(C(F)(F)F)ccc2C(F)(F)F)cc1`: in [1], the Activity entry is listed as “Non-Toxic”.
Same read-out and setting: in the case of `COc1ccc(/C=C/c2cc(OC)cc(OC)c2/C=C/C(=O)/C=C/c2ccccc2OC)cc1` it was “Non-Toxic”; in that of `COc1ccc(/C=C/c2cc(OC)cc(OC)c2/C=C/C(=O)/C=C/c2ccccc2Br)cc1`, “Non-Toxic”.
With `COc1ccc(/C=C/c2cc(OC)cc(OC)c2/C=C/C(=O)/C=C/c2cccc3ccccc23)cc1`, in series [1], the Activity entry is reported as “Non-Toxic”.
`COc1ccc(/C=C/c2cc(OC)cc(OC)c2/C=C/C(=O)/C=C/c2ccc(OC(C)(C)C)cc2)cc1`: the Activity entry in series [1] is recorded as “Non-Toxic”.
In the case of `COc1ccc(/C=C/c2cc(OC)cc(OC)c2/C=C/C(=O)/C=C/c2c(OC)cc(OC)cc2OC)cc1`, in the series on RAW264.7 [7], the inhibition result was “Active”. In series [1], the Activity entry is “Non-Toxic”.
Regarding `COc1ccc(/C=C/c2cc(OC)cc(OC)c2/C=C/C(=O)/C=C/c2ccccc2C(F)(F)F)cc1`, the inhibition result in the series with RAW264.7 [2] and with RAW264.7 [7] was “Active” throughout. In addition, the Activity entry in series [1] is given as “Non-Toxic”.
